Source: PubChem BioAssay (NCI)
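Briefly, cells in 96-well plates were exposed to five compound concentrations for 48 h, and endpoints were estimated by linear interpolation. TGI marks complete inhibition of growth.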

How the values were obtained:
Assay in all cases: inhibition of tumour cell growth, NCI panel, 48 h
NCI-H23 lung = test system: NCI-H23 lung
HOP-92 NSCLC = test system: HOP-92 NSCLC
BT-549 breast = test system: BT-549 breast
CAKI-1 renal = test system: CAKI-1 renal
K-562 leukemia = test system: K-562 leukemia
SR leukemia = test system: SR leukemia
OVCAR-5 ovarian = test system: OVCAR-5 ovarian
SNB-19 CNS = test system: SNB-19 CNS
OVCAR-3 ovarian = test system: OVCAR-3 ovarian
DU-145 prostate = test system: DU-145 prostate
MOLT-4 leukemia = test system: MOLT-4 leukemia

SMILES	TGI (NCI-H23 lung)	TGI (HOP-92 NSCLC)	TGI (BT-549 breast)	TGI (CAKI-1 renal)	TGI (K-562 leukemia)	TGI (SR leukemia)	TGI (OVCAR-5 ovarian)	TGI (SNB-19 CNS)	TGI (OVCAR-3 ovarian)	TGI (DU-145 prostate)	TGI (MOLT-4 leukemia)
c1ccc2c(c1)c1c3n2-c2cc(on2)C3CCC1 (stereo not given)	> 100 µM	> 100 µM	> 100 µM	> 100 µM	> 100 µM	> 100 µM	> 100 µM	> 100 µM	> 100 µM	> 100 µM	> 100 µM
CCOC(=O)CCC(C(=O)OCC)n1nnc2cc(Nc3c(C)[n+]([O-])c4ccc(Cl)cc4[n+]3[O-])ccc21 (stereo not given)	> 100 µM	> 100 µM	> 100 µM	> 100 µM	> 100 µM	> 100 µM	> 100 µM	> 100 µM	> 100 µM	> 100 µM	> 100 µM
CC(C)CC(NC(=O)C(COc1ccc([N+](=O)[O-])cc1)Cc1ccccc1)C(=O)Nc1ccccc1 (stereo not given)	28.7 µM	34.2 µM	29.7 µM	83.8 µM	> 100 µM	> 100 µM	> 100 µM	20.2 µM	> 100 µM	> 100 µM	> 100 µM
N#Cc1c(C#N)c(-c2ccccc2)n(/N=C\c2ccccc2)c1N	> 100 µM	68.4 µM	> 100 µM	> 100 µM	> 100 µM	82.9 µM	> 100 µM	> 100 µM	48.1 µM	> 100 µM	30.9 µM
COC(=O)c1c(C#C[Si](C)(C)C)c(C#C[Si](C)(C)C)c(C#C[Si](C)(C)C)c(C#C[Si](C)(C)C)c1C(=O)OC	> 100 µM	> 100 µM	> 100 µM	> 100 µM	> 100 µM	> 100 µM	> 100 µM	> 100 µM	> 100 µM	> 100 µM	> 100 µM
O=C(NCc1cccnc1)C(=O)NCc1cccnc1	> 100 µM	> 100 µM	> 100 µM	> 100 µM	> 100 µM	> 100 µM	> 100 µM	> 100 µM	> 100 µM	> 100 µM	> 100 µM
COc1cc(-c2[o+]c3cc(O)cc(OC4OC(CO)C(O)C(O)C4O)c3cc2OC2OC(CO)C(O)C(O)C2O)cc(OC)c1O (stereo not given)	> 100 µM	> 100 µM	> 100 µM	> 100 µM	> 100 µM	> 100 µM	> 100 µM	> 100 µM	> 100 µM	> 100 µM	> 100 µM
O=C(NCc1ccccc1)c1c(O)c2ccccc2[nH]c1=O	> 100 µM	> 100 µM	> 100 µM	> 100 µM	> 100 µM	> 100 µM	> 100 µM	> 100 µM	> 100 µM	> 100 µM	> 100 µM
COc1cc(S(=O)(=O)N/N=C/c2cc(Br)c(O)c(OC)c2)c(OC)cc1NC(C)=O	> 100 µM	> 100 µM	> 100 µM	> 100 µM	> 100 µM	> 100 µM	> 100 µM	> 100 µM	> 100 µM	> 100 µM	> 100 µM
CCCCCCCCC[n+]1cccc(C2C(C(=O)OCC)=C(C)NC(C)=C2C(=O)OCC)c1	17.8 µM	6.52 µM	4.51 µM	28.2 µM	43.7 µM	> 25.3 µM	24.6 µM	11.2 µM	11.8 µM	25.9 µM	19.2 µM
Cc1nnc(CC#N)n1NC(=O)CC#N	> 100 µM	> 100 µM	> 100 µM	> 100 µM	> 100 µM	> 100 µM	> 100 µM	> 100 µM	> 100 µM	> 100 µM	> 100 µM
COC(=O)/C=C\C(C#N)(C#N)N=Cc1ccsc1	22.1 µM	3.7 µM	5.7 µM	6.07 µM	1.62 µM	0.645 µM	16.2 µM	27.6 µM	5.37 µM	21.5 µM	5 µM
COC(=O)C(C(=O)OC)C1CC(=O)c2c(Br)sc(Br)c21 (stereo not given)	25.4 µM	35 µM	35.7 µM	21.1 µM	53.5 µM	34.6 µM	28.9 µM	47.3 µM	17.5 µM	34.8 µM	18.7 µM
COC(=O)C1[C@H](C(=O)OC)C1(Br)CBr (stereo not given in full)	> 100 µM	> 100 µM	> 100 µM	> 100 µM	> 100 µM	> 100 µM	> 100 µM	> 100 µM	> 100 µM	> 100 µM	> 100 µM
CC1(O)C(=O)OC2CC([C@]3(O)CCC4[C@@H]5C[C@H]6O[C@]67[C@@H](O)C=CC(=O)[C@]7(C)C5CC[C@@]43C)C1(C)C2 (stereo not given in full)	25.1 µM	10.9 µM	26.1 µM	25.4 µM	> 31.6 µM	10.6 µM	74.1 µM	> 100 µM	35 µM	75.2 µM	31.6 µM
